Experimental data published in article PMC6199744, “Development of Chemical Proteomics for the Folateome and Analysis of the Kinetoplastid Folateome” (ACS Infectious Diseases, 2018).
Where two headings read alike, the source gives them in different places.

What was measured:
Assay type in all cases: binding
[1] = target: T1, HeLa cell extract proteins (Homo sapiens, UniProt P14866); conditions: protein HNRNPL; HeLa
T1 construct: endogenous in cells; host or cells: HeLa cell extract
T1 sequence (P14866 1-589): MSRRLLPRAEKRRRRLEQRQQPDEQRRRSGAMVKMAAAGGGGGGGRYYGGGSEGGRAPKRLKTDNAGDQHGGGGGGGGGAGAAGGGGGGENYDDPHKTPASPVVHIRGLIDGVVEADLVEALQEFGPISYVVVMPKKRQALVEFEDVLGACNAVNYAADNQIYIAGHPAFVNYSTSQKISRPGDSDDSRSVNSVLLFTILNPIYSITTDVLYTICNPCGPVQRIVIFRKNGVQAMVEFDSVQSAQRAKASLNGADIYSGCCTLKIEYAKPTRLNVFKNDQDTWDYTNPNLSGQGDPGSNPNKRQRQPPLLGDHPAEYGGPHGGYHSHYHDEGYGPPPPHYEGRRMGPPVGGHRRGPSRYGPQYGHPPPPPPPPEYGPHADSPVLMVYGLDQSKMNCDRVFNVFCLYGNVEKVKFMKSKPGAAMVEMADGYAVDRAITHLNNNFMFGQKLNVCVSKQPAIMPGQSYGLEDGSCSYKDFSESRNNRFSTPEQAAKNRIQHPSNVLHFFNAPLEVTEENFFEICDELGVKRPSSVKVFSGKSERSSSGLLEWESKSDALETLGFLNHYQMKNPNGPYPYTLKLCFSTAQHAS

[2] = target: T2, HeLa cell extract proteins (Homo sapiens, UniProt P30048); conditions: protein PRDX3; HeLa
T2 construct: endogenous in cells; host or cells: HeLa cell extract
T2 sequence (P30048 62-256): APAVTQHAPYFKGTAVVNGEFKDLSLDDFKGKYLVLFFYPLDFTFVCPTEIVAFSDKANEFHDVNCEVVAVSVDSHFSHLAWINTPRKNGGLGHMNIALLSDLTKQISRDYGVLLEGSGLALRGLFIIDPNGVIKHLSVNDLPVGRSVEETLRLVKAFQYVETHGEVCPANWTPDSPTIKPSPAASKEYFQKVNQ

[3] = target: T3, HeLa cell extract proteins (Homo sapiens, UniProt P82933); conditions: protein MRPS9; HeLa
T3 construct: endogenous in cells; host or cells: HeLa cell extract

[4] = target: T4, HeLa cell extract proteins (Homo sapiens, UniProt Q9H9T3)
T4 construct: endogenous in cells; host or cells: HeLa cell extract
T4 sequence (Q9H9T3 1-547): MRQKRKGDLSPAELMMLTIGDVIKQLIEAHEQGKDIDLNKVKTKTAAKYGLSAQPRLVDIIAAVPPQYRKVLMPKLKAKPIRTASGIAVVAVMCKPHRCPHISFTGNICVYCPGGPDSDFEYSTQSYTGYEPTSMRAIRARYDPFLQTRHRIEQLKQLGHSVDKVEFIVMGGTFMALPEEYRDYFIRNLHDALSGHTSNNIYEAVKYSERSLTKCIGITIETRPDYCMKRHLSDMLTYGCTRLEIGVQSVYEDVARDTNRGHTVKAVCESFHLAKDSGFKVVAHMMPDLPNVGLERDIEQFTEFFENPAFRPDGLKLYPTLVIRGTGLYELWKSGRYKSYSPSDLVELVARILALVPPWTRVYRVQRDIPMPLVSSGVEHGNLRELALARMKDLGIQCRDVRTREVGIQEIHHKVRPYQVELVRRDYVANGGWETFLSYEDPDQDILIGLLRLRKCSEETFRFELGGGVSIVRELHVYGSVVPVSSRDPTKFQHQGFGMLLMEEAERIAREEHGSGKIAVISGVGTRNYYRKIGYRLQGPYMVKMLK

[5] = target: T5, HeLa cell extract proteins (Homo sapiens, UniProt O14979)
T5 construct: endogenous in cells; host or cells: HeLa cell extract
T5 sequence (O14979 1-420): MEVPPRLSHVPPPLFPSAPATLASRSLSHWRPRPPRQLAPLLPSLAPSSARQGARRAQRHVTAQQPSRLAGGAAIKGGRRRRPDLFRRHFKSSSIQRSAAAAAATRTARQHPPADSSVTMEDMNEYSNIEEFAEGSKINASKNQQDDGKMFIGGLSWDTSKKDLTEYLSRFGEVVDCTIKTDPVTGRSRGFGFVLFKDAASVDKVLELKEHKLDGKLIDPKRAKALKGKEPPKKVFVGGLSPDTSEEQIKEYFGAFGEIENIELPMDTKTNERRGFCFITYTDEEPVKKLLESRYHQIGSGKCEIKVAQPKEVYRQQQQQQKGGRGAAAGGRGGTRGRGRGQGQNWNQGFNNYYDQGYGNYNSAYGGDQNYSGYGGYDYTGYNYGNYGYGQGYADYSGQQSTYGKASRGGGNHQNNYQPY

[6] = target: T6, HeLa cell extract proteins (Homo sapiens, UniProt Q9UPU5)
T6 construct: endogenous in cells; host or cells: HeLa cell extract
T6 sequence (Q9UPU5 whole entry): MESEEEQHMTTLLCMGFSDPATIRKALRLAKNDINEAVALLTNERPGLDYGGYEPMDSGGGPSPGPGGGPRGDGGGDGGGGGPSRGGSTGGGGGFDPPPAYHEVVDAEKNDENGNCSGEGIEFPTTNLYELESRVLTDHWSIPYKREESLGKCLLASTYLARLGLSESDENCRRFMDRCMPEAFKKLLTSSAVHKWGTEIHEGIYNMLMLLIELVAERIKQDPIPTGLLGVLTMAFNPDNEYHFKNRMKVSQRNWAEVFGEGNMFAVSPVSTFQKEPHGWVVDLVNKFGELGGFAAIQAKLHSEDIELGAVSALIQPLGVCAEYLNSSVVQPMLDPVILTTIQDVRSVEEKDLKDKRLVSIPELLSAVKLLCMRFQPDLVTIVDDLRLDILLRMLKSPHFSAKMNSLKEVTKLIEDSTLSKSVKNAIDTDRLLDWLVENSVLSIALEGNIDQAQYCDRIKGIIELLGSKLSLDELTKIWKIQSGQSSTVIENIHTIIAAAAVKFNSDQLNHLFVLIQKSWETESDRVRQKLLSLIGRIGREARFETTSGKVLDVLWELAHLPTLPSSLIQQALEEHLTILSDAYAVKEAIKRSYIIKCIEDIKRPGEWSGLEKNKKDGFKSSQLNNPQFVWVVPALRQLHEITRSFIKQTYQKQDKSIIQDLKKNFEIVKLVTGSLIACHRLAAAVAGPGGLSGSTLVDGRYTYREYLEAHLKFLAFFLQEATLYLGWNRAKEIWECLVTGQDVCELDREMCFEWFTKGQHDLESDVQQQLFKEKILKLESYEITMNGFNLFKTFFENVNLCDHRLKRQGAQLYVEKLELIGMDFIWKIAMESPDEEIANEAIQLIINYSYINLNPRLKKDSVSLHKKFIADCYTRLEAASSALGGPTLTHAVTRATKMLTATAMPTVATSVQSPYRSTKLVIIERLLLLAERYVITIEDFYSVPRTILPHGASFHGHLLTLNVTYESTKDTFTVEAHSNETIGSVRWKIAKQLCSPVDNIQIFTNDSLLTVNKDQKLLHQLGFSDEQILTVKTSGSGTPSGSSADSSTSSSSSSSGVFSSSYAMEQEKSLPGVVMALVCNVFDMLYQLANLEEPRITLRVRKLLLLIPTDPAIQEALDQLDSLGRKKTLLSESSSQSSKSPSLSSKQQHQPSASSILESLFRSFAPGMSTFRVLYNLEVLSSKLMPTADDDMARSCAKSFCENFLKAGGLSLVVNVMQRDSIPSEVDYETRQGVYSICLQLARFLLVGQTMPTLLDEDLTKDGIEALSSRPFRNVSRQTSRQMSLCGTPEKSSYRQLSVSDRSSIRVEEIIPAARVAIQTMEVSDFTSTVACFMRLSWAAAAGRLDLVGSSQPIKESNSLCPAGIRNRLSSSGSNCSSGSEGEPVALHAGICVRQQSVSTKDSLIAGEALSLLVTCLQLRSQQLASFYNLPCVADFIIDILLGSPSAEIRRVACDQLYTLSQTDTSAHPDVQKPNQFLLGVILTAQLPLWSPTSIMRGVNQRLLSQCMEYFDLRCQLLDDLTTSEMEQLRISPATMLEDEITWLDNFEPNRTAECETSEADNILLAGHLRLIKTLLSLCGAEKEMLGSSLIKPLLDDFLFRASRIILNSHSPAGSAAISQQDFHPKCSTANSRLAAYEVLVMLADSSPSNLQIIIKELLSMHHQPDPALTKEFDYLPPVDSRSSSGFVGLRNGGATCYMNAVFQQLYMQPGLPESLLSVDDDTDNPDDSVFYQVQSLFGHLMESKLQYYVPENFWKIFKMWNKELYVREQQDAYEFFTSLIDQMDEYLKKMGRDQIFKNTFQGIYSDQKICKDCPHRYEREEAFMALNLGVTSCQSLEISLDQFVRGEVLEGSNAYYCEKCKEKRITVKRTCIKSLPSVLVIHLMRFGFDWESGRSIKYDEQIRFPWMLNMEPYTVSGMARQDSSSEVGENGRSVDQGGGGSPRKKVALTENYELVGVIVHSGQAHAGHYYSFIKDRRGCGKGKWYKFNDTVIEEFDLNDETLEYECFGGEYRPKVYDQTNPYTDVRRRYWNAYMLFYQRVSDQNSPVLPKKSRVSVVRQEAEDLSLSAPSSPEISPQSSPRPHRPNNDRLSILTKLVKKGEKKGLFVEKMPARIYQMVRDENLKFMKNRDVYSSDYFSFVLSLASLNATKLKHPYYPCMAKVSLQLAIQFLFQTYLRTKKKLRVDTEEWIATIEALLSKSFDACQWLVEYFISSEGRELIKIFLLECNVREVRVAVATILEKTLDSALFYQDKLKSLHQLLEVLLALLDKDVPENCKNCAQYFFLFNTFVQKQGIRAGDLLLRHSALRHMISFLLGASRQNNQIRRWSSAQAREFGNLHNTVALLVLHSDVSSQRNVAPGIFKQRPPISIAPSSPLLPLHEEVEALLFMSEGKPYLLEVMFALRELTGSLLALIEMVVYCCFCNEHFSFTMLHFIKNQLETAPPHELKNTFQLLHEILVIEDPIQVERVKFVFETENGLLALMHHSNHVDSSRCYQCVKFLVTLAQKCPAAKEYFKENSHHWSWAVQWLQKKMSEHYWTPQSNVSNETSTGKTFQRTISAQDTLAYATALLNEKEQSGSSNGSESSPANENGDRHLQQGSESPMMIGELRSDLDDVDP

Nc1nc2cccc(-c3ccccc3)c2n1Cc1ccc(Cl)c(Cl)c1 [compound 3]
fold changes relative to vehicle control [1]: 0.88 | fold changes relative to vehicle control [2]: 0.99 | fold changes relative to vehicle control [3]: 0.92

Nc1nc2[nH]cc(CCc3ccc(C(=O)N[C@@H](CCC(=O)O)C(=O)O)cc3)c2c(=O)[nH]1 [PTX, pemetrexed]
fold changes relative to vehicle control [4]: 0.72 | fold changes relative to vehicle control [5]: 1.02 | fold changes relative to vehicle control [6]: 0.89

Nc1nc2c(c(=O)[nH]1)N(C=O)C(CNc1ccc(C(=O)N[C@@H](CCC(=O)O)C(=O)O)cc1)CN2 (stereo partly drawn) [LEU, leucovorin]
fold changes relative to vehicle control ([4]; protein ELP3, HeLa): 0.88 | fold changes relative to vehicle control ([5]; HeLa, captured protein HNRPDL): 1.09 | fold changes relative to vehicle control ([6]; protein USP24, HeLa): 0.85

CCCCCCOc1cccc(Cc2cnc(N)nc2N)c1 [compound 2]
fold changes relative to vehicle control [1]: 1.02 | fold changes relative to vehicle control [2]: 1.52 | fold changes relative to vehicle control [3]: 1.3

NCCOCCOCC(=O)Nc1nc2ncc(CNc3ccc(C(=O)NC(CCC(=O)O)C(=O)O)cc3)nc2c(=O)[nH]1 (stereo not drawn) [compound 6]
fold changes relative to vehicle control ([4]; protein ELP3, HeLa): 0.91 | fold changes relative to vehicle control ([5]; HeLa, captured protein HNRPDL): 1.06 | fold changes relative to vehicle control ([6]; protein USP24, HeLa): 1.01

CCCCCCOc1ccc(Cc2cnc(N)nc2N)cc1 [compound 1]
fold changes relative to vehicle control [1]: 1 | fold changes relative to vehicle control [2]: 1.11 | fold changes relative to vehicle control [3]: 1.24

NCCCNc1ccc(C(=O)NC(CCC(=O)O)C(=O)O)cc1 (stereo not drawn) [compound 7]
fold changes relative to vehicle control ([4]; protein ELP3, HeLa): 0.9 | fold changes relative to vehicle control ([5]; HeLa, captured protein HNRPDL): 1.03 | fold changes relative to vehicle control ([6]; protein USP24, HeLa): 0.84
